The experiment has as its target T1, native membrane-anchored human CD73 (in MDA-MB-231 cell membrane preparations) (Homo sapiens, UniProt P21589).
T1 construct: membrane preparations of MDA-MB-231 cells; endogenous in cells; host or cells: MDA-MB-231 cell membrane preparations
T1 sequence (P21589 27-549 limits assumed): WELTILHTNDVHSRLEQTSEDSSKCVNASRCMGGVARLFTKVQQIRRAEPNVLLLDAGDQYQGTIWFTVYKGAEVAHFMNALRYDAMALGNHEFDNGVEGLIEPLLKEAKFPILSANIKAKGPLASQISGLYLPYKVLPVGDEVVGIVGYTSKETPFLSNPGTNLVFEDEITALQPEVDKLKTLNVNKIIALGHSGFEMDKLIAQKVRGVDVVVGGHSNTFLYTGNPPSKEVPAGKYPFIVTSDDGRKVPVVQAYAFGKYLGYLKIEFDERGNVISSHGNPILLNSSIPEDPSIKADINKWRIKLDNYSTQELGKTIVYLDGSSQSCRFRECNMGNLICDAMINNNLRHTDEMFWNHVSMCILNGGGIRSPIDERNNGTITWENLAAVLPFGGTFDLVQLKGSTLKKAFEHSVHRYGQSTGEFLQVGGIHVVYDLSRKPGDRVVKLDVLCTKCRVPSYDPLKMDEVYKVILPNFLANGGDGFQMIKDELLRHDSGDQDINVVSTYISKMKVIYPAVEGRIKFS
Briefly: CD73 enzyme inhibition assay with [2,8-3H]AMP, MDA-MB-231 membrane preparations. It is filed as biochemical. The note with it: [2,8-3H]AMP (5 μM) as substrate, read-out: Human CD73 MDA-MB-231 Ki ± SEM. Here is the method: Compound 2b, its precursor 1, and 20 were investigated for their CD73-inhibitory potency using tritium-labeled AMP as a substrate.^20 After incubation with CD73, non-hydrolyzed substrate and inorganic phosphate were precipitated using a solution of lanthanum chloride, and the precipitate was separated from the solution containing the reaction product [2,8-^3H]adenosine by filtration through GF/B glass fiber filters (WhatmanTM GE Healthcare, Chicago, IL, USA) using a cell harvester (M-48, Brandel, Gaitherburg, MD, USA). The filtrates (ca. 1.8 mL each) were transferred to scintillation vials, scintillation cocktail ULTIMA Gold XR (PerkinElmer, Waltham, MA, USA) was added (5 mL), and the radioactivity esd quantified by scintillation counting. CD73 preparations were (1) recombinant soluble human CD73,^13 (2) recombinant soluble rat CD73,^21 both expressed in Spodoptera frugiperda 9 (Sf) cells, (3) membrane preparations of MDA-MB-231 cells,^16 a human triple-negative breast cancer cell line with high expression of CD73,^18 and (4) membrane preparations of the 4T1.2 cell line, a mouse CD73-expressing breast cancer cell line.^22 The potency of the compounds was determined by measurements of full concentration-inhibition curves. K values were calcuated from the obtained IC50 values employing the Cheng-Prusoff equation.^23 […]

By Ki is commonly meant a measure of affinity in units of concentration, obtained from inhibition or displacement.

`CCCN(Cc1ccc(-c2cn(CCF)nn2)cc1)c1nc(Cl)nc2c1ncn2[C@@H]1O[C@H](COP(=O)(O)CP(=O)(O)O)C(O)C1O` (some centres unmarked) [Compound 2]: the Ki was 2.78 ± 0.47 nM. With `O=C(NCCCCCCNC(=O)c1ccc2c(c1)C1(OC2=O)c2ccc(O)cc2Oc2cc(O)ccc21)c1ccc(CNc2nc(Cl)nc3c2ncn3[C@@H]2O[C@H](COP(=O)(O)CP(=O)(O)O)[C@@H](O)[C@H]2O)cc1` [Compound 20, (((((2R,3S,4R,5R)-5-(2-chloro-6-((4-((6-(3′,6′-dihydroxy-3-oxo-3H-spiro[isobenzofuran-1,9′-xanthene]-6-carboxamido)-hexyl)carbamoyl)benzyl)amino)-9H-purin-9-yl)-3,4-dihydroxytetrahydrofuran-2-yl)methoxy)(hydroxy)phosphoryl)methyl)phosphonic acid], the Ki was determined as 6.76 ± 1.25 nM.

The values above are taken from patent US20250382322A1, “DIAGNOSTICS FOR DETECTING ECTO-5'-NUCLEOTIDASE (CD73)” (EBERHARD KARLS UNIVERSITÄT TÜBINGEN, priority 2022, published 2025).
